# Measurements published in patent US10703728B1, “Crystalline form of olaparib and a process for preparing the same” (SCINOPHARM TAIWAN, LTD., priority 2019, dated 2020).
# Key:
# [1] = Solubility of olaparib at 60° C. in solvents and anti-solvents; assay type: physicochemical
# Procedure: (§1) “Solvent” refers to a liquid substance capable of dissolving olaparib at a concentration of at least about 2.5% (w/w) at 60° C.
# In the Tables above, examples of good solvents include, but are not limited to, an alcohol (e.g., methanol or ethanol), acetic acid, dimethylacetamide, dimethyl sulfoxide and pyridine. Examples of poor solvents (anti-solvents) include, but are not limited to, water, toluene, acetonitrile, cyclohexane, isopropanol, tetrahydrofuran, n-butanol, xylenes, ethyl acetate and n-heptane.
# [2] = Solubility of olaparib at room temperature; assay type: physicochemical; settings: for solubility: organic solvent or mixture
# Procedure: as §1
compound,measurement,setting,value
"O=C(c1cc(Cc2n[nH]c(=O)c3ccccc23)ccc1F)N1CCN(C(=O)C2CC2)CC1 [olaparib, 4-[(3-[(4-cyclopropylcarbonyl)piperazin-4-yl]carbonyl)-4-fluorophenyl]methyl(2H)phthalazin-1-one]",Solubility of olaparib,[1]; ACN,<2.1 wt %
same,Solubility of olaparib,[1]; DMAc,>23.5 wt %
same,"Solubility of olaparib (Summary, solvents for olaparib)","[1]; DMAc, Pyridine",>15% (w/w)
same,Solubility of olaparib,[1]; EA,<1.8 wt %
same,Solubility of olaparib,[1]; EtOH,2.6-2.9 wt %
same,"Solubility of olaparib (Summary, solvents for olaparib)","[1]; EtOH, MeOH",2.5-10% (w/w)
same,Solubility of olaparib,[1]; IPA,<2.1 wt %
same,Solubility of olaparib,[1]; MeOH,6.7-8.8 wt %
same,Solubility of olaparib,[1]; Pyridine,>21.5 wt %
same,Solubility of olaparib,[1]; THF,<1.9 wt %
same,Solubility of olaparib,[1]; Toluene,<1.9 wt %
same,"Solubility of olaparib (Summary, anti-solvents for olaparib)","[1]; Toluene, ACN, Cyclohexane, IPA, THF, EA, Xylenes, n-heptane, Water, n-butanol",<2.5% (w/w)
same,Solubility of olaparib,[1]; Xylenes,<1.9 wt %
same,solubility,"[1]; acetonitrile (ACN), organic solvent or mixture, ACN",< 16.2 mg/mL
same,Solubility of olaparib,[1]; cyclohexane,<2.1 wt %
same,solubility,"[1]; dimethylacetamide (DMAc), organic solvent or mixture, DMAc",> 220 mg/mL
same,solubility,"[1]; ethanol (EtOH), organic solvent or mixture, EtOH",21 to 23 mg/mL
same,solubility,"[1]; ethyl acetate (EA), organic solvent or mixture, EA",< 16.2 mg/mL
same,solubility,"[1]; isopropanol (IPA), organic solvent or mixture, IPA",< 16.2 mg/mL
same,solubility,"[1]; methanol (MeOH), organic solvent or mixture, MeOH",53 to 70 mg/mL
same,Solubility of olaparib,[1]; n-butanol,<2.1 wt %
same,Solubility of olaparib,[1]; n-heptane,<2.4 wt %
same,solubility,"[1]; organic solvent or mixture, Pyridine",> 210 mg/mL
same,solubility,"[1]; organic solvent or mixture, Toluene",< 16.9 mg/mL
same,solubility,"[1]; organic solvent or mixture, Xylenes",< 16.2 mg/mL
same,solubility,"[1]; organic solvent or mixture, cyclohexane",< 16.2 mg/mL
same,solubility,"[1]; organic solvent or mixture, n-butanol",< 16.9 mg/mL
same,solubility,"[1]; organic solvent or mixture, n-heptane",< 16.2 mg/mL
same,solubility,"[1]; tetrahydrofuran (THF), organic solvent or mixture, THF",< 16.9 mg/mL
same,Solubility of olaparib,[1]; water,<1.6 wt %
same,solubility,[1]; water,< 16.2 mg/mL
same,Solubility of olaparib,[2]; AcOH,>20.0 wt %
same,"Solubility of olaparib (Summary, solvents for olaparib)","[2]; AcOH, DMSO",>15% (w/w)
same,Solubility of olaparib,[2]; DMSO,>19.1 wt %
same,solubility,"[2]; acetic acid (AcOH), AcOH",> 210 mg/mL
same,solubility,"[2]; dimethyl sulfoxide (DMSO), DMSO",> 210 mg/mL
